From patent US11242335B2, “Fluorine-substituted indazole compounds and uses thereof” (SUNSHINE LAKE PHARMA CO., LTD., priority 2017, dated 2022)

Columns and labels:
[1] = Pharmacokinetics in male SD rats after intravenous and oral administration; format: in vivo
Protocol: Preparation of test compound solution: The test compound was formulated with 5% dimethylsulfoxide, 5% Solutol HS 15 and 90% physiological saline to give solution, which was used for oral and intravenous administration.
Male SD rats weighing 190-250 g were randomly divided into two groups, each group had three members; one group received test compound at a dose of 1.0 mg/kg by intravenous injection, the other group received test compound at a dose of 2.5 or 5.0 mg/kg by oral. After dosing, blood samples were collected at time points of 0.0833, 0.25, 0.5, 1.0, 2.0, 4.0, 7.0 and 24 h. Standard curve was plotted based on concentrations of the samples in a suitable range, the concentrations of test compounds in plasma samples were determined by using AB SCIEX API4000 LC-MS/MS in MRM mode. Pharmacokinetic parameters were calculated according to drug concentration-time curve using a noncompartmental method by WinNonLin 6.3 software.

[2] = target: T1, hERG potassium channel (Homo sapiens, UniProt Q12809); assay: Inhibition of hERG potassium channel, manual patch clamp in HEK293 cells; format: cell-based; settings: hERG tail current; HEK293 cells overexpressing hERG; whole cell patch clamp; 22-24° C.
T1 construct: expressed in transfected cells; host or cells: HEK293
T1 sequence (Q12809 whole entry): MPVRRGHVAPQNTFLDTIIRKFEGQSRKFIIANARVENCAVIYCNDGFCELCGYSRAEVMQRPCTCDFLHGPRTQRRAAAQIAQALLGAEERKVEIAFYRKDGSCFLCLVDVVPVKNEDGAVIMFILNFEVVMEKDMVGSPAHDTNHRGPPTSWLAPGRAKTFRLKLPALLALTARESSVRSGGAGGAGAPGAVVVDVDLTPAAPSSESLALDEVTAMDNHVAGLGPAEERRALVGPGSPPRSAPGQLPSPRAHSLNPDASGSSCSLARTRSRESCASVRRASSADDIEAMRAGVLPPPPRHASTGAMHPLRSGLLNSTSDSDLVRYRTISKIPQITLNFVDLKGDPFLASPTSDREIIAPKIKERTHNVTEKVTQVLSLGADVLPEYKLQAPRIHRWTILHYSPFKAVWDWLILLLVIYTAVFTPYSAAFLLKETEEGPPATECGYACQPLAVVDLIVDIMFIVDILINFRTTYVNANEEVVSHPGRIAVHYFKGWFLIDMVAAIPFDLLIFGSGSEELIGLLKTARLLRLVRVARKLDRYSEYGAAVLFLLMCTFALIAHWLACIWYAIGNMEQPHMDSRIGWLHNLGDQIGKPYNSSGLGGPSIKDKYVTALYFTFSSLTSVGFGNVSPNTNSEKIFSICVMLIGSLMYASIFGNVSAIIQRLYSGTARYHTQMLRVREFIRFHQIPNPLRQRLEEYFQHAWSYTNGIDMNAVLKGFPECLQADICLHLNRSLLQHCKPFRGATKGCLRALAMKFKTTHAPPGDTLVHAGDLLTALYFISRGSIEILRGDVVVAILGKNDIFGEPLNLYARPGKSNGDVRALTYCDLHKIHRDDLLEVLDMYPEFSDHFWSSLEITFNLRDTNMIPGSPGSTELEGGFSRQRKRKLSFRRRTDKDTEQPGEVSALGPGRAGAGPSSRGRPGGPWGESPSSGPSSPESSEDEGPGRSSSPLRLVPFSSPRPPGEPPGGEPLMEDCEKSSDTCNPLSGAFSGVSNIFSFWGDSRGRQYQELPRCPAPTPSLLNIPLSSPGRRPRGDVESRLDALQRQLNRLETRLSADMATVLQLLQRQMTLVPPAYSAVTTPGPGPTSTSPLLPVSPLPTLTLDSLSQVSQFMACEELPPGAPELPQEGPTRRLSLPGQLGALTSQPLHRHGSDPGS
Protocol: Each compound was weighed and dissolved in DMSO and diluted with DMSO to a serial solution (30, 10, 3.3, 1.1, 0.37 mM). The above serial solutions were diluted to 1000-fold with the extracellular fluid to prepare test solutions (final concentration was 30, 10, 3.3, 1.1, 0.37 μM respectively).
The HEK293 cells that overexpressed the hERG potassium channel were cultured in a 37° C., 5% CO2 incubator, and the culture medium contained DMEM, 15% fetal bovine serum, and 1% penicillin-streptomycin. When the cell density reached 80% of the culture plate, the cells were digested with trypsin/EDTA and transferred to a centrifuge tube, centrifuged at 1000 rpm for 3 minutes, then supernatant was discarded, and the cell culture medium was added. The cells were mixed uniformly by gently blowing and beating. […]
The whole cell recording mode was used to record the channel current in the experiment. Firstly, the extracellular fluid was perfused (approximately 2 mL per minute) and the data were continuous recorded, and the current was kept steady (the current decay was less than 5% in 5 minutes). […] The extracellular fluid containing the test compound was then perfused and the data were continuous recorded until the compound's inhibitory effect on the hERG current reached a steady state, at this time point the peak value of tail current was the current value after dosing. […]

F ([1]; po 5 mg/kg versus iv 1 mg/kg): 99.6%
AUC(0-t) ([1]; rat, plasma, iv, 1 mg/kg): 7520 ng·h/mL
Cmax ([1]; rat, plasma, iv, 1 mg/kg): 1500 ng/mL
Tmax ([1]; rat, plasma, iv, 1 mg/kg): 0.083 h
clearance ([1]; rat, plasma, iv, 1 mg/kg): 2.21 mL/min/kg
half-life ([1]; rat, plasma, iv, 1 mg/kg): 3.54 h
Vd ([1]; rat, plasma, iv, 1 mg/kg, read-out: Vss): 0.63 L/kg
AUC(0-t) ([1]; rat, plasma, po, 5 mg/kg): 37500 ng·h/mL
Cmax ([1]; rat, plasma, po, 5 mg/kg): 3070 ng/mL
Tmax ([1]; rat, plasma, po, 5 mg/kg): 2 h
half-life ([1]; rat, plasma, po, 5 mg/kg): 4.34 h
SMILES: COC(=O)Nc1c(N)nc(-c2nn(Cc3ccccc3F)c3c(F)cccc23)nc1N [Example 10, methyl (4,6-diamino-2-(7-fluoro-1-(2-fluorobenzyl)-1H-indazol-3-yl)pyrimidin-5-yl)carbamate]
IC50 [2]: 19.9 µM
